In paper PMC6270595, “Synthesis and Cytotoxicity of Novel 10-Substituted Dihydroartemisinin Derivatives Containing N-Arylphenyl-ethenesulfonamide Groups” (Molecules, 2013):
Read-outs that look alike come from different tables or passages of the source.

Columns and labels:
[1] = system: MDA-MB-231 (human breast cancer); assay: MTT cytotoxicity assay, MDA-MB-231; type: cell-based; details: MDA-MB-231 cells, 50% cell growth inhibition after 72 h of drug exposure
Description: (§1) The cytotoxic activities of target compounds were evaluated against HT-29 (human colon cancer), MDA-MB-231 (human breast cancer), U87MG (human glioblastoma), H460 (human lung cancer), A549 (non-small-cell lung adenocarcinoma), HL-60 (human leukemic) cancer cell lines and one normal cell line WI-38 (human fetal lung fibroblasts) together with references DHA and cisplatin by a MTT assay.
(§2) The cytotoxic activities of compounds 3a–h and 6a–j were evaluated with the HT-29, MDA-MB-231, U87MG, H460, A549, HL-60 cancer cell lines and one normal cell line, WI-38, by the standard MTT assay in vitro [20], with DHA as the positive control. The cell lines were cultured in minimum essential medium (MEM) supplement with 10% fetal bovine serum (FBS). Approximately 4 × 10^3 cells, suspended in MEM medium, were plated on to each well of a 96-well plate and incubated in 5% CO2 at 37 °C for 24 h. The test compounds at indicated final concentrations were added to the culture medium and the cell cultures were continued for 72 h. Fresh MTT was added to each well at a terminal concentration of 5 μg/mL and incubated with cells at 37 °C for 4 h. The formazan crystals were dissolved in 100 μL DMSO each well, and the absorbency at 492 nm (for absorbance of MTT formazan) and 630 nm (for the reference wavelength) was measured with the ELISA reader. All of the compounds were tested twice in each of the cell lines. The results expressed as IC50 (inhibitory concentration 50%) were the averages of two determinations and calculated using the Bacus Laboratories Incorporated Slide Scanner (Bliss) software.

[2] = system: HT-29 (human colon cancer); assay: MTT cytotoxicity assay, HT-29; type: cell-based; details: HT-29 cells, 50% cell growth inhibition after 72 h of drug exposure, read-out: IC50(μM) HT29
Description: as §1, §2

[3] = system: U87MG (human glioblastoma); assay: MTT cytotoxicity assay, U87MG; type: cell-based; details: for IC50: U87MG cells, 50% cell growth inhibition after 72 h of drug exposure, MTT
Description: as §1, §2

[4] = system: H460 (human lung cancer); assay: MTT cytotoxicity assay, H460; type: cell-based; details: for IC50: H460 cells, 50% cell growth inhibition after 72 h of drug exposure, MTT
Description: as §1, §2

[5] = system: A549 (non-small-cell lung adenocarcinoma); assay: MTT cytotoxicity assay, A549; type: cell-based, human; details: A549 cells, 50% cell growth inhibition after 72 h of drug exposure
Description: as §1, §2

[6] = system: HL-60 (human leukemic); assay: MTT cytotoxicity assay, HL-60; type: cell-based; details: for IC50: HL-60 cells, 50% cell growth inhibition after 72 h of drug exposure, MTT
Description: as §1, §2

[7] = system: WI-38 (human fetal lung fibroblasts); assay: MTT cytotoxicity assay, normal cell line WI-38; type: cell-based; details: normal WI-38 cells, 50% cell growth inhibition after 72 h of drug exposure, read-out: IC50(μM) WI38
Description: as §1, §2

| SMILES | IC50 ([1]; Homo sapiens) [µM] | IC50 ([2]; Homo sapiens) [µM] | IC50 ([3]; Homo sapiens, U-87 MG) [µM] | IC50 ([4]; Homo sapiens, NCI-H460) [µM] | IC50 ([5]; Homo sapiens) [µM] | IC50 ([6]; Homo sapiens) [µM] | IC50 ([7]; Homo sapiens) [µM] | melting point [°C] | activity fold higher than that of benzamide analog 6c ([3]; U87MG, versus 6c) [fold] | activity fold higher than that of benzamide analog 6c ([4]; H460, versus 6c) [fold] | activity fold higher than that of benzamide analog 6c ([6]; HL-60, versus 6c) [fold] | selectivity index (IC50 normal cell/IC50 cancer cell) ([6]; WI-38 normal cells versus HL-60) | IC50 [1] [µM] | IC50 [2] [µM] | IC50 [3] [µM] | IC50 [4] [µM] | IC50 [5] [µM] | IC50 [6] [µM] | IC50 [7] [µM] |
| --- | --- | --- | --- | --- | --- | --- | --- | --- | --- | --- | --- | --- | --- | --- | --- | --- | --- | --- | --- |
| C[C@@H]1CC[C@H]2[C@@H](C)C(OCCNC(=O)c3ccc(COc4ccc(/C=C/S(=O)(=O)Nc5ccc(F)c(C(F)(F)F)c5)cc4)cc3)O[C@@H]3O[C@@]4(C)CC[C@@H]1[C@]32OO4 (stereo partly drawn) [Compound 6j, (E)-N-(2-(10β-Dihydroartemisinoxy)ethyl)-4((4-(2-(N-(3-trifluoromethyl-4fluorophenyl)sulfamoyl)vinyl)phenoxy)methyl)benzamide] | 1.05 | 0.38 | 3.27 | 5.31 | 2.78 | 1.27 | 30.4 | 152 to 154 |  |  |  |  |  |  |  |  |  |  |  |
| C[C@@H]1CC[C@H]2[C@@H](C)C(OCCOc3ccc(/C=C/S(=O)(=O)Nc4ccccc4Cl)cc3)O[C@@H]3O[C@@]4(C)CC[C@@H]1[C@]32OO4 (stereo partly drawn) [Compound 3g, (E)-2-(4-(2-(10β-Dihydroartemisinoxy)ethoxy)phenyl)-N-(2-chlorophenyl)ethenesulfonamide] | 0.93 | 0.55 | 1.78 | 2.53 | 3.05 | 0.17 | 16.3 | 141 to 143 |  |  |  |  |  |  |  |  |  |  |  |
| C[C@@H]1CC[C@H]2[C@@H](C)C(OCCOc3ccc(/C=C/S(=O)(=O)Nc4ccccc4)cc3)O[C@@H]3O[C@@]4(C)CC[C@@H]1[C@]32OO4 (stereo partly drawn) [Compound 3a, (E)-2-(4-(2-(10β-Dihydroartemisinoxy)ethoxy)phenyl)-N-phenylethenesulfonamide] | 2 | 0.68 | 3.97 | 5.38 | 2.16 | 1.25 | 16.8 | 136 to 138 |  |  |  |  |  |  |  |  |  |  |  |
| COc1cccc(NS(=O)(=O)/C=C/c2ccc(OCc3ccc(C(=O)NCCOC4O[C@@H]5O[C@@]6(C)CC[C@H]7[C@H](C)CC[C@@H]([C@H]4C)[C@@]57OO6)cc3)cc2)c1 (stereo partly drawn) [Compound 6i, (E)-N-(2-(10β-Dihydroartemisinoxy)ethyl)-4((4-(2-(N-(3-methoxyphenyl)sulfamoyl)vinyl)phenoxy)methyl)benzamide] | 8.89 | 8.95 | > 100 | 16.3 | 11.3 | 8.53 | 19.2 | 144 to 145 |  |  |  |  |  |  |  |  |  |  |  |
| C[C@@H]1CC[C@H]2[C@@H](C)C(OCCOc3ccc(/C=C/S(=O)(=O)Nc4ccc(OC(F)(F)F)cc4)cc3)O[C@@H]3O[C@@]4(C)CC[C@@H]1[C@]32OO4 (stereo partly drawn) [Compound 3c, (E)-2-(4-(2-(10β-Dihydroartemisinoxy)ethoxy)phenyl)-N-(4-trifluoromethoxyphenyl)ethenesulfonamide] | 0.39 | 0.2 | 1.59 | 0.97 | 2.11 | 0.05 | 37.5 |  | 2 | 3 | 2 | 750 |  |  |  |  |  |  |  |
| C[C@@H]1CC[C@H]2[C@@H](C)C(OCCNC(=O)c3ccc(COc4ccc(/C=C/S(=O)(=O)Nc5ccc(OC(F)(F)F)cc5)cc4)cc3)O[C@@H]3O[C@@]4(C)CC[C@@H]1[C@]32OO4 (stereo partly drawn) [Compound 6c, (E)-N-(2-(10β-Dihydroartemisinoxy)ethyl)-4((4-(2-(N-(4-trifluoromethoxyphenyl)sulfamoyl)vinyl)phenoxy)methyl)benzamide] | 0.49 | 0.29 | 3.71 | 2.7 | 1.57 | 0.09 | 28.2 |  |  |  |  |  |  |  |  |  |  |  |  |
| C[C@H]1[C@@H](O)O[C@@H]2O[C@@]3(C)CC[C@H]4[C@H](C)CC[C@@H]1[C@@]24OO3 [DHA, dihydroartemisinin] | 9.8 | 5.6 | 15.8 | 12.4 | 10.1 | 5.29 | > 100 |  |  |  |  |  |  |  |  |  |  |  |  |
| N.N.[Cl][Pt][Cl] [Cisplatin, cisplatin, reference compound] |  |  |  |  |  |  |  |  |  |  |  |  | 6.82 | 10.3 | 8.21 | 7.55 | 4.31 | 9.28 | 51.2 |
